In ChEMBL document CHEMBL4837239, “Identification of Thieno[3,2-d]pyrimidine Derivatives as Dual Inhibitors of Focal Adhesion Kinase and FMS-like Tyrosine Kinase 3” (J Med Chem, 2021):
The source made the active and inactive calls. The rule behind the calls is not given here.

Legend:
BaF3 [1] = experiment: Antiproliferative activity against mouse Ba/F3 cells harbouring FLT3 ITD F691L mutant assessed as growth inhibition measured after 72 hrs by CellTiter-Glo assay; assay type: functional
CYP2C9 = CYP2C9 (Homo sapiens, UniProt P11712); experiment: Inhibition of CYP2C9 (unknown origin) at 10 uM relative to control; assay type: ADME
BaF3 [2] = experiment: Antiproliferative activity against mouse Ba/F3 cells harbouring FLT3 ITD mutant assessed as growth inhibition measured after 72 hrs by CellTiter-Glo assay; assay type: functional
[3] = Inhibition of FLT3 D835Y (unknown origin); parameters: species or system Homo sapiens
CYP2D6 = CYP2D6 (Homo sapiens, UniProt P10635); experiment: Inhibition of CYP2D6 (unknown origin) at 10 uM relative to control; assay type: ADME
BaF3 [4] = experiment: Antiproliferative activity against mouse Ba/F3 cells assessed as growth inhibition measured after 72 hrs by CellTiter-Glo assay; assay type: functional
HCT-116 = experiment: Antiproliferative activity against human HCT-116 cells assessed as growth inhibition measured after 72 hrs by CellTiter-Glo assay; assay type: functional
MDA-MB-231 = experiment: Antiproliferative activity against human MDA-MB-231 cells assessed as growth inhibition measured after 72 hrs by CellTiter-Glo assay; assay type: functional
CYP2C19 = CYP2C19 (Homo sapiens, UniProt P33261); experiment: Inhibition of CYP2C19 (unknown origin) at 10 uM relative to control; assay type: ADME
[5] = (§1) Antiproliferative activity against human A375P cells assessed as growth inhibition measured after 72 hrs by CellTiter-Glo assay; assay type: functional
Focal adhesion kinase 1 = Focal adhesion kinase 1 (Homo sapiens, UniProt Q05397); experiment: Inhibition of recombinant FAK (unknown origin) by radiometric kinase assay
CYP1A2 = molecular target: T1, CYP1A2 (Homo sapiens, UniProt P05177); experiment: Inhibition of CYP1A2 (unknown origin) at 10 uM relative to control; assay type: ADME
T1 sequence (P05177 whole entry): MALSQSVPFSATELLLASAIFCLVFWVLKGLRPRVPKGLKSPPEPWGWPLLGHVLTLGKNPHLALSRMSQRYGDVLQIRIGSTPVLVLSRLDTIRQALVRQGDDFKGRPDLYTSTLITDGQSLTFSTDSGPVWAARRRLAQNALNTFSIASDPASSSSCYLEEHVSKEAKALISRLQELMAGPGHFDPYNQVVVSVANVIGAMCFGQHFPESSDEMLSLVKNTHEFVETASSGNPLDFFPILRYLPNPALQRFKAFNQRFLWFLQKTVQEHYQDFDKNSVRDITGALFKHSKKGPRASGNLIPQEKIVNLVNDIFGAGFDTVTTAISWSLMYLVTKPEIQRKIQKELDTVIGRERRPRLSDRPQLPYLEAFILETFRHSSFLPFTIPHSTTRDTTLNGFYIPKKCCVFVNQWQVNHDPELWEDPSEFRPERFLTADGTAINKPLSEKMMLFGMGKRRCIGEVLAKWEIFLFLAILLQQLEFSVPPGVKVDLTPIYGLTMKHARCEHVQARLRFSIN

CYP3A4 = CYP3A4 (Homo sapiens, UniProt P08684); experiment: Inhibition of CYP3A4 (unknown origin) at 10 uM relative to control; assay type: ADME
BaF3 [6] = experiment: Antiproliferative activity against mouse Ba/F3 cells harbouring FLT3 D835Y mutant assessed as growth inhibition measured after 72 hrs by CellTiter-Glo assay; assay type: functional
BaF3 [7] = experiment: Antiproliferative activity against mouse Ba/F3 cells harbouring FLT3 ITD D835Y mutant assessed as growth inhibition measured after 72 hrs by CellTiter-Glo assay; assay type: functional
BaF3 [8] = experiment: Antiproliferative activity against mouse Ba/F3 cells harbouring FLT3 ITD F691I mutant assessed as growth inhibition measured after 72 hrs by CellTiter-Glo assay; assay type: functional
[9] = Metabolic stability in human liver microsomes assessed as compound remaining at 1 uM measured after 1 hr; assay type: ADME, Microsome; conditions: read-out: Stabilty
A375P = experiment: as §1; assay type: functional
[10] = Inhibition of FYK Y379 mutant phosphorylation in human MDA-MB-231 cells by in-cell western blot assay; assay type: cell-based

CYP2C19, sequence (P33261 whole entry): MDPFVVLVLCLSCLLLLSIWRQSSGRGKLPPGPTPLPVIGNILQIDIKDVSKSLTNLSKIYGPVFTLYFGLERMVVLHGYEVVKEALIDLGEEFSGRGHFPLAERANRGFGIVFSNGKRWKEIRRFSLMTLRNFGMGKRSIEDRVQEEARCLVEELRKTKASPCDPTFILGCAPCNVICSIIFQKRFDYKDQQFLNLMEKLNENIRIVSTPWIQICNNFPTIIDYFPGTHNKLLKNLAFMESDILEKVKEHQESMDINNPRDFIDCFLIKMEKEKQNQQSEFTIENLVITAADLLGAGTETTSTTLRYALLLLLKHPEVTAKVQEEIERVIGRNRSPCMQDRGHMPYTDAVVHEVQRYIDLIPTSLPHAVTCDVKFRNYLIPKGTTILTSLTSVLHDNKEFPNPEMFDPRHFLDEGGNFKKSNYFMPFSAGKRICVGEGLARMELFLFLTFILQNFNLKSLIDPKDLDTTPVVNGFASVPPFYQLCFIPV
CYP3A4, sequence (P08684 whole entry): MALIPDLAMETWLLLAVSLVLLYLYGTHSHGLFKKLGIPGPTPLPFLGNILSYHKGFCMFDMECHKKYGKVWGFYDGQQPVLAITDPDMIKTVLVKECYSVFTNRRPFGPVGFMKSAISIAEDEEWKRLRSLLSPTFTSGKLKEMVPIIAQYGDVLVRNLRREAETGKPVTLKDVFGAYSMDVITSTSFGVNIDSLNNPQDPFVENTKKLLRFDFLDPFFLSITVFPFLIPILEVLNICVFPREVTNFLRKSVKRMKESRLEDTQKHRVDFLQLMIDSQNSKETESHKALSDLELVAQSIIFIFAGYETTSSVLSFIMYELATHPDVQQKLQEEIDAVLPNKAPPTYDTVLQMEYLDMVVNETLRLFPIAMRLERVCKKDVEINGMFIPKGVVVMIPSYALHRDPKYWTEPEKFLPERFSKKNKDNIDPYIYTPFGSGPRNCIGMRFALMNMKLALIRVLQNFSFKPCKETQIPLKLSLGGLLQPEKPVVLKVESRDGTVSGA
Focal adhesion kinase 1, sequence (Q05397 whole entry): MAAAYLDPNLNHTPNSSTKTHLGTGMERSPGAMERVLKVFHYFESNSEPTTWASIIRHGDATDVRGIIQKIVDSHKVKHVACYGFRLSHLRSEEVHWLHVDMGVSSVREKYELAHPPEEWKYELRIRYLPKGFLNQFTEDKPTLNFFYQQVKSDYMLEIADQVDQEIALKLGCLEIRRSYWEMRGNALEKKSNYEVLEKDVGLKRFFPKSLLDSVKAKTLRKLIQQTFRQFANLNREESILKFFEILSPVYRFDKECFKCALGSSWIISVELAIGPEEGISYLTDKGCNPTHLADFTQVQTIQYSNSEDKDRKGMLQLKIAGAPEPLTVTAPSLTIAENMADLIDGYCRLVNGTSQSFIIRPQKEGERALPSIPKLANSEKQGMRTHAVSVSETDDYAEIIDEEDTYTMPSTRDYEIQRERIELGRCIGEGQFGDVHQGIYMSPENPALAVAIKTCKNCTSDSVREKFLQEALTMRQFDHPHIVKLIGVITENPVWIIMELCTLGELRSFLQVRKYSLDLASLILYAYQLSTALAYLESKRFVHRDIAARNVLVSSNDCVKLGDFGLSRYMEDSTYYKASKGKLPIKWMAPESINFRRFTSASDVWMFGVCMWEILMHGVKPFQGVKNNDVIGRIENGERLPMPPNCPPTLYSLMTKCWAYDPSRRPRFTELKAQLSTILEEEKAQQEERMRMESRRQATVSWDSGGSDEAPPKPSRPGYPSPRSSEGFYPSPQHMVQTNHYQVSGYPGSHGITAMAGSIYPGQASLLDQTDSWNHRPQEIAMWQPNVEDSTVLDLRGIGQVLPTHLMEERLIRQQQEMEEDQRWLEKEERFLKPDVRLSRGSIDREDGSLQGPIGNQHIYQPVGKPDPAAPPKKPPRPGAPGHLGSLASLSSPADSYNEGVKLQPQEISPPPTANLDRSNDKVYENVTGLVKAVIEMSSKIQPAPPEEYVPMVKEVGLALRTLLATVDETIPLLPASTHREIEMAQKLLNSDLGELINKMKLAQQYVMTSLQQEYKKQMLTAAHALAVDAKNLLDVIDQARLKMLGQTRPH
CYP2C9, sequence (P11712 whole entry): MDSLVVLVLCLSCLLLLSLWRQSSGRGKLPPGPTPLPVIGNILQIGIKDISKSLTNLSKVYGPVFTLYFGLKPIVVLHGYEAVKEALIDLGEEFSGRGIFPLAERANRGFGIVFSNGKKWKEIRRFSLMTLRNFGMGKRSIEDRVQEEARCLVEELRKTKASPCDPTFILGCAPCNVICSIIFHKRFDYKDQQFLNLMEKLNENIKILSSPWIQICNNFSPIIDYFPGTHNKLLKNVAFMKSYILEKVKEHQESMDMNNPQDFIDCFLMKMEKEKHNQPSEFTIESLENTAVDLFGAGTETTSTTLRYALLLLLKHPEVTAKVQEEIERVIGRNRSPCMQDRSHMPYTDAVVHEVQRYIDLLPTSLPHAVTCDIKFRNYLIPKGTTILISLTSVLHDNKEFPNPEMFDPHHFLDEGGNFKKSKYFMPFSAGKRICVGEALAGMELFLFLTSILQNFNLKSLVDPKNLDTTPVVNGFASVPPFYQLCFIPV
CYP2D6, sequence (P10635 whole entry): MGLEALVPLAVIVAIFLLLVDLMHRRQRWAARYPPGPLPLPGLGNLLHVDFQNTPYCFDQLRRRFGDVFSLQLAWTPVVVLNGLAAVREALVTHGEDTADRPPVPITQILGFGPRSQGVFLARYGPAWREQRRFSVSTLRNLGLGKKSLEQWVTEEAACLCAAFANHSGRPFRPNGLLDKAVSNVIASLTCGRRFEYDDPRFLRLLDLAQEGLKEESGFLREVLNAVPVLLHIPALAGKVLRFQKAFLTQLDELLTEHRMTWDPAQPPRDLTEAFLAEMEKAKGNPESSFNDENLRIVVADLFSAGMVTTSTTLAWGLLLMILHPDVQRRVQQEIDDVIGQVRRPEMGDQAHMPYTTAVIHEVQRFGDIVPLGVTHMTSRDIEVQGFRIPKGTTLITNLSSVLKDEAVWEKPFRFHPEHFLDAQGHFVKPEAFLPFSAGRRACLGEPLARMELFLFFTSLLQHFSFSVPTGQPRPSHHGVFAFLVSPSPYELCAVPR

SMILES | GI50 (BaF3 [1]; Mus musculus, BaF3) [nM] | inhibition at 10 µM (CYP2C9) [%] | GI50 (BaF3 [2]; Mus musculus, BaF3) [nM] | IC50 [3] [nM] | inhibition at 10 µM (CYP2D6) [%] | GI50 (BaF3 [4]; Mus musculus, BaF3) [nM] | GI50 (HCT-116; Homo sapiens, HCT-116) [nM] | GI50 (MDA-MB-231; Homo sapiens, MDA-MB-231) [nM] | inhibition at 10 µM (CYP2C19) [%] | GI50 ([5]; Homo sapiens, A375P) [nM] | IC50 (Focal adhesion kinase 1) [nM] | inhibition at 10 µM (CYP1A2) [%] | inhibition at 10 µM (CYP3A4) [%] | GI50 (BaF3 [6]; Mus musculus, BaF3) [nM] | GI50 (BaF3 [7]; Mus musculus, BaF3) [nM] | GI50 (BaF3 [8]; Mus musculus, BaF3) [nM] | remaining at 1 h, 1 µM [9] [%] | also measured
CCN1CCN(c2ccc(Nc3ncc4scc(-c5ccccc5)c4n3)cc2)CC1 | 67.5 | 92.1 | 10.8 | < 0.5 | 84.1 | 174 | 1140 | 630 | 96.5 | 400 | 10 | 30.9 | 81 | 2.2 | 153 | 192 | 92.6 | –
CCN1CCN(c2ccc(Nc3ncc4scc(-c5cccc([N+](=O)[O-])c5)c4n3)cc2)CC1 | 136 | 100 | 23.4 | < 0.5 | 100 | 511 | 110 | 260 | 82.9 | 500 | 21 | 44.8 | 55.1 | 4 | 20.5 | 234 | 73.1 | –
CS(=O)(=O)Nc1cccc(-c2csc3cnc(NCCO)nc23)c1 | – | – | – | – | – | – | 55800 | 57200 | – | – | – | – | – | – | – | – | – | GI50 (A375P): inactive
CCOC(=O)c1ccccc1-c1csc2cnc(Nc3ccc(N4CCN(CC)CC4)cc3)nc12 | – | – | – | – | – | – | 31200 | 46200 | – | – | 1650 | – | – | – | – | – | – | GI50 (A375P): inactive
CCN1CCN(c2ccc(Nc3ncc4scc(-c5cccc(N6CCCS6(=O)=O)c5)c4n3)cc2)CC1 | 223 | 74.1 | 46.3 | < 0.5 | 91.3 | 371 | 340 | 530 | 75.7 | 410 | 33 | 67.9 | 59.6 | 9.4 | 23.2 | 568 | 73.4 | –
CCN1CCN(c2ccc(Nc3ncc4scc(-c5ccc6ccccc6c5)c4n3)cc2)CC1 | – | – | – | – | – | – | 2060 | 1380 | – | – | 126 | – | – | – | – | – | – | GI50 (A375P): inactive
CS(=O)(=O)Nc1cccc(-c2csc3cnc(Nc4ccc(N5CCNCC5)cc4)nc23)c1 | 103 | 63.2 | 7.4 | < 0.5 | 84.7 | 550 | 250 | 460 | 57.5 | 490 | 12 | 67.5 | 57.3 | 1.6 | 11 | 183 | 100 | –
CNC(=O)c1ccccc1Nc1nc(Nc2ccc(N3CCOCC3)cc2OC)ncc1Cl | – | 27 | – | – | 83.2 | – | 270 | 1490 | 50.5 | 1690 | – | 73.3 | 71.2 | – | – | – | – | –
CCN1CCN(c2ccc(Nc3ncc4scc(-c5ccc6cc[nH]c6c5)c4n3)cc2)CC1 | 57.7 | 91.7 | 20.8 | < 0.5 | 89.4 | 647 | 170 | 570 | 76.5 | 500 | 54 | 67.3 | 76 | 6.2 | 32.3 | 142 | 89.3 | –
CS(=O)(=O)Nc1cccc(-c2csc3cnc(Nc4ccc(N5CCOCC5)cc4)nc23)c1 | – | – | – | < 0.5 | – | – | – | – | – | – | 8 | – | – | – | – | – | 79.5 | GI50 (BaF3 [1]): 104 nM; GI50 (BaF3 [2]): 9.5 nM; GI50 (BaF3 [4]): 510 nM; GI50 (HCT-116): 410 nM; GI50 (MDA-MB-231): 400 nM; GI50 [5]: 1570 nM; GI50 (BaF3 [6]): 1.7 nM; GI50 (BaF3 [7]): 10.3 nM; GI50 (BaF3 [8]): 365 nM; IC50 [10]: 260 nM
CCN1CCN(c2ccc(Nc3ncc4scc(-c5cccc(OC)c5)c4n3)cc2)CC1 | 222 | 89.3 | 1100 | < 0.5 | 86.4 | 405 | 240 | 280 | 79.4 | 510 | 12 | 35.1 | 72.1 | 46.5 | 90.7 | 390 | 83.7 | –
CS(=O)(=O)Nc1cccc(-c2csc3cnc(Nc4ccc(N5CCC(O)CC5)cc4)nc23)c1 | – | – | – | < 0.5 | 61.5 | – | – | – | 56.5 | – | 16 | 34.9 | 57.9 | – | – | – | 54.8 | GI50 (BaF3 [1]): 299 nM; GI50 (BaF3 [2]): 14.5 nM; GI50 (BaF3 [4]): 600 nM; GI50 (HCT-116): 520 nM; GI50 (MDA-MB-231): 440 nM; GI50 [5]: 1930 nM; GI50 (BaF3 [6]): 23 nM; GI50 (BaF3 [7]): 14 nM; GI50 (BaF3 [8]): 587 nM
